For two compounds, Ki results are on record in patent EP0619818B1, “IMIDAZOYLALKYL SUBSTITUTED WITH A SIX MEMBERED NITROGEN CONTAINING HETEROCYCLIC RING” (SCHERING CORPORATION, priority 1991, dated 1993).

For the assay, the target named is H3 receptors (Cavia porcellus, UniProt Q9JI35). The experiment in a line: H3 Receptor Binding Assay. To be noted: guinea pig brain membranes; 3 nM [3H]R-α-methylhistamine or [3H]-N-methylhistamine; 30° for 30 min; 50 mM Tris, pH 7.5.

Structures are written as SMILES.

Chain of H3 receptors (Q9JI35 whole entry): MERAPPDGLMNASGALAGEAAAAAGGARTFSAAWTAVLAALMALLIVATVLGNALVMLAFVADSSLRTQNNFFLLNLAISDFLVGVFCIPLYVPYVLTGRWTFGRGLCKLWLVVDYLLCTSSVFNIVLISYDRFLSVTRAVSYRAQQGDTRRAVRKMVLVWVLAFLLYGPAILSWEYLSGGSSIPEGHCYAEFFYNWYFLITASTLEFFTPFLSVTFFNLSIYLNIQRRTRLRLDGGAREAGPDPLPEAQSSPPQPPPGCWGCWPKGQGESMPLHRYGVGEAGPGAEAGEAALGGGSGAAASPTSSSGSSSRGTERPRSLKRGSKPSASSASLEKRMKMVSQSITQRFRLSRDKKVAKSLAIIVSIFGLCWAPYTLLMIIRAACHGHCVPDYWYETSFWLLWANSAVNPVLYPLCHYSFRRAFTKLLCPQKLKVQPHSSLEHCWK
Procedure: The animals used weighed 400-600 g. The tissue was homogenized using a Polytron in a solution of 50 mM Tris, pH 7.5. The final concentration of tissue in the homogenization buffer was 10% w/v. The homogenates were centrifuged at 1000 x g for 10 min. in order to remove clumps of tissue and debris. The resulting supernatants were then centrifuged at 50,000 x g for 20 min. in order to sediment the membranes, which were next washed 3 times in homogenization buffer (50,000 x g for 20 min. each). The membranes were frozen and stored at -70°C until needed.
All compounds to be tested were dissolved in DMSO and then diluted into the binding buffer (50 mM Tris, pH 7.5) such that the final concentration was 2 µg/mL with 0.1% DMSO. Membranes were then added (400 µg of protein) to the reaction tubes. The reaction was started by the addition of 3 nM [^3H]R-α-methylhistamine (8.8 Ci/mmol) or [^3H]-N-methylhistamine (80 Ci/mmol) and incubated at 30° for 30 min. Bound ligand was separated from unbound ligand by filtration, and the amount of radioactive ligand bound to the membranes was quantitiated by liquid scintillation spectrometry. All incubations were performed in duplicate and the standard error was less than 10% in all instances.

Take `CN1CCCC(Cc2c[nH]cn2)C1` (centres unmarked) [Compound 6.2]: the affinity corresponds to a Ki of 190 nM.
In the case of `c1nc(CC2CCNCC2)c[nH]1` [Compound 7.3] it was 0.3 nM.
